Data taken from patent US20090188496A1, “INHALABLE TIOTROPIUM AND CONTAINER THEREFOR” (Boehringer Ingelheim International GmbH, priority 2003, published 2009).

Test: In-use stability test of FPD, commercial capsules in opened blister, 40° C. and 75% Rh
Format: physicochemical
Conditions: conclusion of tests S1-5 and HBS1-3
Method: (§1) From the blister holding 5 capsules one capsule was withdrawn and the remaining 4 capsules were put 4 days into 40° C. and 75% Rh. The blister containing the 4 capsules was then put in an exicator for 2 h before tests were performed. The test was performed with 4 kPa pressure drop over the […]® at room temperature and laboratory ambient conditions.
as §1, with “put 13” for “put 4”
as §1, with “put 21” for “put 4”

For `C[N+]1(C)[C@@H]2C[C@@H](OC(=O)C(O)(c3cccs3)c3cccs3)C[C@H]1[C@@H]1O[C@@H]12` [tiotropium], the “Sensitivity of FPD to moisture” value was “extremely sensitive to moisture”.
